Measurements from patent US12655116B2, “Substituted isophthalic acid diamides” (Bayer Aktiengesellschaft, priority 2020, dated 2026).

Legend:
DIGSA [1] = assay: Pre-emergence herbicidal action against DIGSA; assay type: in vivo, Digitaria sanguinalis
Summary of the method: (§1)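 Visual rating at 3 weeks vs untreated pots; 0–100% scale, 100% = plants died. Treatment: aqueous WP/EC spray onto covering soil, 600–800 l/ha, 0.2% wetter, seeds in sandy loam.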

DIGSA [2] = assay: Post-emergence herbicidal action against DIGSA; assay type: in vivo, Digitaria sanguinalis; conditions: for Post-emergence action against DIGSA: 20 g/ha
Summary of the method: (§2)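 Weeds in sandy loam soil received a post-emergence spray at the one-leaf stage. Compounds were applied as WP or EC in water, 600 to 800 l/ha, with 0.2% wetting agent. Activity in % was judged visually after roughly 3 weeks against untreated plants.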

ABUTH [3] = assay: Pre-emergence herbicidal action against ABUTH; assay type: in vivo, Abutilon theophrasti; conditions: for Pre-emergence action against ABUTH (herbicidal activity): 80 g/ha, scored visually after 3 weeks vs untreated controls (100% = plants have died, 0% = like control plants); for Pre-emergence action against ABUTH (herbicidal activity in percent): dosage 20 g/ha, scored visually after 3 weeks vs untreated controls, 100% = plants have died, 0% = like control plants
Summary of the method: as §1

VIOTR = assay: Pre-emergence herbicidal action against VIOTR; assay type: in vivo, Viola tricolor
Summary of the method: as §1

AMARE [4] = assay: Post-emergence herbicidal action against AMARE; assay type: in vivo, Amaranthus retroflexus; conditions: 20 g/ha, visual assessment about 3 weeks after treatment, 100% = plants have died, 0% = like control plants
Summary of the method: as §2

VERPE [5] = assay: Post-emergence herbicidal action against VERPE; assay type: in vivo, Veronica persica; conditions: 20 g/ha
Summary of the method: as §2

MATIN [6] = assay: Pre-emergence herbicidal action against MATIN; assay type: in vivo, Matricaria inodora
Summary of the method: as §1

SETVI [7] = assay: Pre-emergence herbicidal action against SETVI; assay type: in vivo, Setaria viridis; conditions: dosage 80 g/ha
Summary of the method: as §1

ECHCG [8] = assay: Pre-emergence herbicidal action against ECHCG; assay type: in vivo, Echinochloa crus-galli; conditions: 80 g/ha
Summary of the method: as §1

VERPE [9] = assay: Pre-emergence herbicidal action against VERPE; assay type: in vivo, Veronica persica; conditions: dosage 80 g/ha
Summary of the method: as §1

PHBPU [10] = assay: Pre-emergence herbicidal action against PHBPU; assay type: in vivo, Pharbitis purpurea; conditions: dosage 80 g/ha
Summary of the method: as §1

AVEFA [11] = assay: Post-emergence herbicidal action against AVEFA; assay type: in vivo, Avena fatua; conditions: 20 g/ha, visual assessment about 3 weeks after treatment, 100% = plants have died, 0% = like control plants
Summary of the method: as §2

SETVI [12] = assay: Post-emergence herbicidal action against SETVI; assay type: in vivo, Setaria viridis
Summary of the method: as §2

AVEFA [13] = assay: Pre-emergence herbicidal action against AVEFA; assay type: in vivo, Avena fatua; conditions: 80 g/ha, pre-emergence
Summary of the method: as §1

AMARE [14] = assay: Pre-emergence herbicidal action against AMARE; assay type: in vivo, Amaranthus retroflexus
Summary of the method: as §1

ALOMY [15] = assay: Post-emergence herbicidal action against ALOMY; assay type: in vivo, Alopecurus myosuroides; conditions: dosage 20 g/ha, visual assessment about 3 weeks after treatment vs untreated controls
Summary of the method: as §2

ABUTH [16] = assay: Post-emergence herbicidal action against ABUTH; assay type: in vivo, Abutilon theophrasti; conditions: visual assessment about 3 weeks after treatment vs untreated controls
Summary of the method: as §2

ALOMY [17] = assay: Pre-emergence herbicidal action against ALOMY; assay type: in vivo, Alopecurus myosuroides; conditions: 80 g/ha, pre-emergence, scored visually after 3 weeks vs untreated controls (100% = plants have died, 0% = like control plants)
Summary of the method: as §1

POLCO = assay: Pre-emergence herbicidal action against POLCO; assay type: in vivo, Polygonum convolvulus; conditions: dosage 80 g/ha
Summary of the method: as §1

PHBPU [18] = assay: Post-emergence herbicidal action against PHBPU; assay type: in vivo, Pharbitis purpurea
Summary of the method: as §2

MATIN [19] = assay: Post-emergence herbicidal action against MATIN; assay type: in vivo, Matricaria inodora; conditions: dosage 20 g/ha
Summary of the method: as §2

ECHCG [20] = assay: Post-emergence herbicidal action against ECHCG; assay type: in vivo, Echinochloa crus-galli
Summary of the method: as §2

[21] = 20 g/ha, scored visually after 3 weeks vs untreated controls, 100% = plants have died, 0% = like control plants
[22] = 80 g/ha, scored visually after 3 weeks vs untreated controls (100% = plants have died, 0% = like control plants)

Structure (SMILES) | Pre-emergence action against DIGSA in % (DIGSA [1]; dosage 20 g/ha) [%] | Pre-emergence action against DIGSA in % (DIGSA [1]; dosage 80 g/ha) [%] | Post-emergence action against DIGSA (DIGSA [2]) [%] | Pre-emergence action against ABUTH (herbicidal activity) (ABUTH [3]) [%] | Pre-emergence action against ABUTH (herbicidal activity in percent) (ABUTH [3]) [%] | Pre-emergence action against VIOTR in % (VIOTR; dosage 80 g/ha) [%] | Post-emergence action at 20 g/ha against AMARE in % (AMARE [4]) [%] | Post-emergence action against VERPE in % (VERPE [5]) [%] | Pre-emergence action against MATIN in % (MATIN [6]; dosage 20 g/ha) [%] | Pre-emergence action against MATIN in % (MATIN [6]; dosage 80 g/ha) [%] | Pre-emergence action against SETVI in % (SETVI [7]) [%] | Pre-emergence action against ECHCG in % (ECHCG [8]) [%] | Pre-emergence action against VERPE in % (VERPE [9]) [%] | Post-emergence action at 20 g/ha against AVEFA in % (AVEFA [11]) [%] | Post-emergence action against SETVI in % (SETVI [12]; dosage 20 g/ha) [%] | Pre-emergence action against AMARE in % (AMARE [14]; [21]) [%] | Pre-emergence action against AMARE in % (AMARE [14]; [22]) [%] | Post-emergence action against ABUTH in % (ABUTH [16]; dosage 20 g/ha) [%] | further results
CCn1nnnc1NC(=O)c1ccc(C(F)F)c(C(=O)NCC(F)F)c1Br [Example 2-230] | 100 | 100 | 90 | 100 | 100 | 100 | 100 | 90 | 90 | 100 | 90 | 90 | 100 | 80 | 100 | 100 | 100 | 80 | Pre-emergence action against VIOTR in % (VIOTR; dosage 20 g/ha): 90%; Pre-emergence action against PHBPU in % (PHBPU [10]): 80%; Pre-emergence action against AVEFA in % (AVEFA [13]): 80%; Post-emergence action against ALOMY in % (ALOMY [15]): 90%
Cc1c(C(=O)Nc2nnnn2C)ccc(C(F)F)c1C(=O)NCC(F)F [Example 1-49] | 90 | 100 | 90 | 100 | 80 | 100 | 90 | 90 | 90 | 100 | 80 | 80 | 100 | 80 | 100 | 100 | 100 | 90 | Pre-emergence action against ALOMY (herbicidal activity) (ALOMY [17]): 80%; Post-emergence action against DIGSA in % (DIGSA [2]; 5 g/ha): 80%; Pre-emergence action against POLCO in % (POLCO): 90%; Post-emergence action against PHBPU in % (PHBPU [18]; dosage 5 g/ha): 80%; Post-emergence action against PHBPU in % (PHBPU [18]; dosage 20 g/ha): 90%; Post-emergence action against MATIN in % (MATIN [19]): 80%; Post-emergence action against ECHCG in % (ECHCG [20]; dosage 5 g/ha): 80%; Post-emergence action against ECHCG in % (ECHCG [20]; dosage 20 g/ha): 90%; Post-emergence action against SETVI in % (SETVI [12]; dosage 5 g/ha): 90%; Post-emergence action against ABUTH in % (ABUTH [16]; dosage 5 g/ha): 90%
